Like-named read-outs stand apart in the source and are kept apart here. Square brackets hold non-standard residues; d marks the D form. Peptide text beside a SMILES is read from it. * marks the point of attachment. Sta = CC(C)C[C@H](N)[C@@H](O)CC(=O)O; Isovaleryl = CC(C)CC(=O)*; Cbz = O=C(OCc1ccccc1)*; Boc = CC(C)(C)OC(=O)*; OBn = c1ccc(CO*)cc1; OtBu = CC(C)(C)O*
Assays:
[1] = molecular target: T1, P-glycoprotein (Pgp) purified from MDR CH^RB30 Chinese hamster ovary cells (Cricetulus griseus, UniProt P21448); assay: Quenching of intrinsic Trp fluorescence of purified Pgp by nucleotides, drugs and peptides
T1 sequence (P21448 whole entry): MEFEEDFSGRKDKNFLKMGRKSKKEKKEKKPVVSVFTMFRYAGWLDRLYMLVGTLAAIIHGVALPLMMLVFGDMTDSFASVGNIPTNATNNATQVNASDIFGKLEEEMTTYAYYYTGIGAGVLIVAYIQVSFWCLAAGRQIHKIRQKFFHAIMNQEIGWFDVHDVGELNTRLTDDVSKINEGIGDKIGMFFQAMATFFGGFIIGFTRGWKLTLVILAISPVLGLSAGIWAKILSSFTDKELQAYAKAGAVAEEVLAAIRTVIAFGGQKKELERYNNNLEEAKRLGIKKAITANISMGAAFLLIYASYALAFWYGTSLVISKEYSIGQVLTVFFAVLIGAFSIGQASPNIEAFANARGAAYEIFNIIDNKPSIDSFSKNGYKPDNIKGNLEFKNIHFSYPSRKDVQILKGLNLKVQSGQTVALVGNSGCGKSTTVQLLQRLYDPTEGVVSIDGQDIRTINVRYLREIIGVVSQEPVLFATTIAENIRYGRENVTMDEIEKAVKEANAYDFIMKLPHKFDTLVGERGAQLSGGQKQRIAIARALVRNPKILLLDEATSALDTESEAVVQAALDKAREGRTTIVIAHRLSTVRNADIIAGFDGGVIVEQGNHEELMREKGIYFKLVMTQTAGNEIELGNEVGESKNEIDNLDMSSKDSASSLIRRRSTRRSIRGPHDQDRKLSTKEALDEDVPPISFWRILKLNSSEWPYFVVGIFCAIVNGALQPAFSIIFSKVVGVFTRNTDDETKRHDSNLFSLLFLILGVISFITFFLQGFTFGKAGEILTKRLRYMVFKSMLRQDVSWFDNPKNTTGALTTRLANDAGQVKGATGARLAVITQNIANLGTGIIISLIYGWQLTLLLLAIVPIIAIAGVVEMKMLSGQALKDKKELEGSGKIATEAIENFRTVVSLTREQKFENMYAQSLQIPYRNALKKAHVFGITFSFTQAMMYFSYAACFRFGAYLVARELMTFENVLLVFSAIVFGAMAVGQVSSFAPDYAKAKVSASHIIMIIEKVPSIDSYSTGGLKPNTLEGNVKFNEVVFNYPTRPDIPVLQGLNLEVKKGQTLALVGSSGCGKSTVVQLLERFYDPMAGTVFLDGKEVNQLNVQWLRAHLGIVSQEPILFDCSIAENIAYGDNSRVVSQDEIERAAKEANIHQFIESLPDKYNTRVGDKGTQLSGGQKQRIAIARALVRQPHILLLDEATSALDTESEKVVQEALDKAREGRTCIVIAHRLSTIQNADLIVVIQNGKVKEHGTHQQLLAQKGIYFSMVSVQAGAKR
Description: (§1) Purification of Pgp. Pgp was purified from plasma membrane of MDR CH^RB30 cells by a modification of the method previously described for CH^RC5 (27). […] Contaminating glycoproteins were removed from the S2 fraction by passing through a concanavalinA-Sepharose 4B column (Pharmacia) equilibrated with 2 mM CHAPS buffer. […] The Pgp preparation was kept on ice and used within 24 h.
(§2) Steady-state Fluorescence Measurements. Steady-state fluorescence measurements were performed using a Spex Model DM3000 spectrofluorimeter (Spex Industries Inc., Edison, N.J.) at 22° C., with excitation and emission bandpass set to 4 nm. Most fluorescence studies were carried out on solutions of 100 μg/mL Pgp in 2 mM CHAPS buffer, in the presence of 0.5 mg/mL of the phospholipid PMPC (Avanti Polar Lipids, Alabaster, Ala.). PMPC was added as extruded 100 nm unilamellar vesicles (8). With some drugs, the use of a lipid was not required for the fluorescence measurements. The excitation and emission spectra were the average of three scans, and were corrected by subtracting control scans with the same phospholipid buffer in the absence of protein.
(§3) Quenching Studies using TNP-Nucleotide Derivatives and Drugs. […] Working solutions of TNP-derivatives, and non-peptide drugs and modulators were also prepared in 2 mM CHAPS with 0.5 mg/mL PMPC vesicles, whereas peptide-based drugs and modulators were dissolved in dimethylsulfoxide (DMSO). […] Quenching experiments were performed by successively adding 5 μL aliquots of TNP-derivatives or drug solution to 500 μL of Pgp solution in a 0.5 cm quartz cuvette. After each addition, the sample was excited at 290 nm and the steady-state fluorescence emission was measured at 330 nm. Fluorescence intensities were corrected for dilution, scattering, and the inner filter effect as described elsewhere (8). Control titrations were performed with 30 μM NATA to assess the non-specific quenching of Trp fluorescence by TNP-nucleotide derivatives and drugs.
(§4) The experimental quenching data were computer-fitted to the following equation as described previously (8)(9): [formula]
(§5) where (ΔF/F0 100) is the percent quenching (percent change in fluorescence relative to the initial value), following addition of substrate at a concentration [S], and Kd is the dissociation constant. Fitting was carried out using nonlinear regression with the Marquardt-Levenberg algorithm (SigmaPlot, SPSS Inc., Chicago, Ill.), and values of Kd and (ΔFmax/F0 100) were extracted. For biphasic titration curves, each section of the binding curve was fitted to the above equation separately, as described previously (32).

[2] = molecular target: T1, P-glycoprotein (Pgp) purified from MDR CH^RB30 Chinese hamster ovary cells; assay: Trp fluorescence lifetime of purified Pgp in presence of nucleotides and drugs; set-up: Pgp was purified from plasma membrane of MDR CH^RB30 cells; endogenous in cells; host or cells: MDR CH^RB30 Chinese hamster ovary cells (plasma membrane, CHAPS extraction, concanavalin A-Sepharose pass-through); settings: Pgp Trp decay, concentration of substance
Description: as §1
Fluorescence Lifetime Measurements. Fluorescence decays were measured with a PTI Model C-720 fluorescence lifetime instrument ((28), Photon Technology International Inc., Lawrenceville, N.J.) utilizing a proprietary stroboscopic detection technique (29). […] Fluorescence decays were analyzed with a PTI TimeMaster Pro analysis package using a discrete 1- to 4- exponential fit, 1- to 4-exponential global analysis, or lifetime distribution analysis by the Exponential Series Method (ESM) (30). The quality of fits was judged by chi-square values and weighed residuals.

P-glycoprotein (Pgp) = P-glycoprotein (Pgp) (Cricetulus griseus, UniProt P21448); assay: in vitro; settings: Chinese hamster, Kd2
Chain of P-glycoprotein (Pgp) (P21448 whole entry): as above
Description: as §1, §2, §3, §4, §5

[3] = maximal Trp quenching, single or higher affinity component
[4] = read-out: Kd1, single binding site or high affinity site, 100 μg/mL Pgp, 2 mM CHAPS, 0.5 mg/mL PMPC, 22° C.
[5] = Kd1, single binding site or high affinity site, 100 μg/mL Pgp, 2 mM CHAPS, 0.5 mg/mL PMPC, 22° C.
[6] = maximal Trp quenching, lower affinity component
[7] = read-out: Kd2, lower affinity site of biphasic quench curve

Compound | ΔFmax1 [1, 3] [%] | <tav> (amplitude average lifetime) [2] [ns] | a1 (pre-exponential value) [2] | a2 (pre-exponential value) [2] | t1 (fluorescence lifetime) [2] [ns] | t2 (fluorescence lifetime) [2] [ns] | further results
CCCCCCCCCCCCCCCCCCOP(=O)([O-])OC1CC[N+](C)(C)CC1 [D21266] | 13.0 ± 1.15 | – | – | – | – | – | Kd [1, 4]: 20.1 ± 3.4 µM
CCCCCCCCCCCCCCCCOP(=O)([O-])OCC[N+](C)(C)C [mitelfosine] | – | – | – | – | – | – | ΔFmax1 [1]: 12.0 ± 1.0%; Kd [1, 4]: 20.6 ± 3.3 µM
O=c1cc(N2CCOCC2)oc2c(-c3ccccc3)cccc12 [LY294002] | 29.7 ± 1.6 | – | – | – | – | – | Kd [1, 5]: 6.29 ± 0.88 µM; Kd ([1]; Kd2, lower affinity site of biphasic quench curve): 11.5 ± 1.5 µM; ΔFmax2 [1, 6]: 36.2 ± 2.0%
COc1cc2c(c(OC)c1OC)-c1ccc(OC)c(=O)cc1[C@@H](NC(C)=O)CC2 [colchicine] | 102.2 ± 5.7 | 2.63 | 0.66 | 0.39 | 1.4 | 4.7 | –
CC(C)(C)OC(=O)N[C@@H](CC(=O)OCc1ccccc1)C(=O)N[C@@H](CCCCNC(=O)OCc1ccccc1)C(=O)OC(C)(C)C [reversin 201] (Boc-Asp(OBn)-Lys(Cbz)-OtBu; N-terminus and C-terminus assumed) | – | – | – | – | – | – | Kd ([1]; Kd1): 0.23 ± 0.02 µM
C=C[C@H]1C[N@@]2CC[C@H]1C[C@H]2[C@H](O)c1ccnc2ccc(OC)cc12 [quinine] | – | – | – | – | – | – | ΔFmax1 [1]: 33.5 ± 2.2%
COc1cccc2c1C(=O)c1c(O)c3c(c(O)c1C2=O)C[C@@](O)(C(C)=O)C[C@@H]3O[C@H]1C[C@H](N)[C@H](O)[C@H](C)O1 [daunorubicin] | – | 2.61 | 0.71 | 0.52 | 1.3 | 4.4 | Kd [1]: 2.97 ± 0.38 µM; ΔFmax1 [1]: 22.7 ± 1.3%; ΔFmax2 [1]: 38.2 ± 2.4%; Kd (P-glycoprotein (Pgp)): 10.7 ± 1.7 µM
CCN(CC)c1ccc2c(-c3ccccc3C(=O)O)c3ccc(=[N+](CC)CC)cc-3oc2c1 [rhodamine B] | – | – | – | – | – | – | Kd [1, 4]: 4 ± 0.45 µM; Kd [1, 7]: 33.2 ± 3.1 µM
CN1CCN(CCCN2c3ccccc3Sc3ccc(C(F)(F)F)cc32)CC1 [trifluoperazine] | 18.9 ± 0.87 | 2.15 | 0.72 | 0.35 | 1.1 | 4.3 | ΔFmax2 [1, 6]: 67.7 ± 4.1%; Kd (P-glycoprotein (Pgp)): 16.8 ± 1.6 µM
CC(C)CC(=O)N[C@H](C(=O)N[C@H](C(=O)N[C@@H](CC(C)C)[C@@H](O)CC(=O)N[C@@H](C)C(=O)N[C@@H](CC(C)C)[C@@H](O)CC(=O)O)C(C)C)C(C)C [pepstatin A] (Isovaleryl-VV[Sta]A[Sta]-OH) | 4.46 ± 0.073 | – | – | – | – | – | Kd [1, 5]: 9.53 ± 0.78 µM
CC[C@]1(O)C[C@@H]2CN(CCc3c([nH]c4ccccc34)[C@@](C(=O)OC)(c3cc4c(cc3OC)N(C)[C@H]3[C@@](O)(C(=O)OC)[C@H](OC(C)=O)[C@]5(CC)C=CCN6CC[C@]43[C@@H]65)C2)C1 [vinblastine] | 17.5 ± 0.82 | 2.17 | 1.07 | 0.51 | 1.1 | 4.4 | Kd [1]: 0.5 ± 0.08 µM
rhodamine 123 | 47.5 ± 2.5 | 2.73 | 0.65 | 0.43 | 1.5 | 4.6 | Kd [1]: 6.81 ± 0.71 µM; ΔFmax2 [1, 6]: 107.2 ± 1.8%; ΔFmax ([1]; maximal quenching reached at saturation): ~100%; Kd [1, 7]: 29.8 ± 1 µM
